Experiments:
[1] = Oral pharmacokinetics of Compound nr. 47 in rat with ritonavir boosting; type: in vivo, Sprague-Dawley rats; conditions: single oral 10 mg/kg Compound nr. 47 in 50% PEG400/water, boosted with 10 mg/kg ritonavir about 30 minutes before, plasma
Description: Oral pharmacokinetics of Compound nr. 47 in male and female Sprague-Dawley rats after a single dose at 10 mg/kg, using a formulation in 50% PEG400/water and the influence of “boosting” with 10 mg/kg ritonavir were investigated.
Four male and four female Sprague-Dawley (SD)-rats (approx. body weight 200-250 g) were randomly divided into 2 groups of 2 males and females each (boosted and non-boosted) based on body weight. […] The animals were fasted shortly before the trial. Drinking water remained available ad libitum.
Rats from the non-boosted group received a single oral 10 mg/kg dose of Compound nr. 47, formulated as a 3 mg/ml 50% PEG400/water at pH 8. Rats from the boosted group received a single oral dose of ritonavir, about 30 minutes before single oral dosing with 10 mg/kg of Compound nr. 47. The drug formulations were administered by oral gavage.
From each rat, a 0.5 ml blood sample was collected at 0.5 h, 1 h, 2 h, 4 h and 8 h after dosing. Plasma concentrations were determined using HPLC-MS. Results are shown in the table 2 below, expressed as fold change in pharmacokinetic parameter of the boosted group as compared to the non-boosted group.

[2] = tested on: HCV replicons (Huh-Luc cells, NS3-NS5B regions of HCV type Ib); assay: Replicon assay (Huh-7 luc/neo cells, luciferase readout); type: cell-based; conditions: three days incubation, luciferase activity
Text: The compounds of formula (I) were examined for activity in the inhibition of HCV RNA replication in a cellular assay. […] The cellular assay was based on a bicistronic expression construct, as described by Lohmann et al. (1999) Science vol. 285 pp. 110-113 with modifications described by Krieger et al. (2001) Journal of Virology 75: 4614-4624, in a multi-target screening strategy. In essence, the method was as follows.
The assay utilized the stably transfected cell line Huh-7 luc/neo (hereafter referred to as Huh-Luc). This cell line harbors an RNA encoding a bicistronic expression construct comprising the wild type NS3-NS5B regions of HCV type Ib translated from an Internal Ribosome Entry Site (IRES) from encephalomyocarditis virus (EMCV), preceded by a reporter portion (FfL-luciferase), and a selectable marker portion (neo^R, neomycine phosphotransferase). The construct is bordered by 5′ and 3′ NTRs (non-translated regions) from HCV type Ib. Continued culture of the replicon cells in the presence of G418 (neo^R) is dependent on the replication of the HCV RNA. The stably transfected replicon cells that express HCV RNA, which replicates autonomously and to high levels, encoding inter alia luciferase, are used for screening the antiviral compounds.
The replicon cells were plated in 384 well plates in the presence of the test and control compounds which were added in various concentrations. Following an incubation of three days, HCV replication was measured by assaying luciferase activity (using standard luciferase assay substrates and reagents and a Perkin Elmer ViewLux™ ultraHTS microplate imager). Replicon cells in the control cultures have high luciferase expression in the absence of any inhibitor. The inhibitory activity of the compound on luciferase activity was monitored on the Huh-Luc cells, enabling a dose-response curve for each test compound.

HCV NS3/4A protease = HCV NS3/4A protease (Hepatitis C virus genotype 1a (isolate H77) (HCV), UniProt P27958); assay: Inhibition assay (enzymatic assay), depsipeptide substrate hydrolysis; type: biochemical; conditions: full-length NS3 protease 1 nM, 25 μM NS4A cofactor, 0.5 μM substrate, competitive inhibition model
HCV NS3/4A protease, sequence (P27958 1027-1657): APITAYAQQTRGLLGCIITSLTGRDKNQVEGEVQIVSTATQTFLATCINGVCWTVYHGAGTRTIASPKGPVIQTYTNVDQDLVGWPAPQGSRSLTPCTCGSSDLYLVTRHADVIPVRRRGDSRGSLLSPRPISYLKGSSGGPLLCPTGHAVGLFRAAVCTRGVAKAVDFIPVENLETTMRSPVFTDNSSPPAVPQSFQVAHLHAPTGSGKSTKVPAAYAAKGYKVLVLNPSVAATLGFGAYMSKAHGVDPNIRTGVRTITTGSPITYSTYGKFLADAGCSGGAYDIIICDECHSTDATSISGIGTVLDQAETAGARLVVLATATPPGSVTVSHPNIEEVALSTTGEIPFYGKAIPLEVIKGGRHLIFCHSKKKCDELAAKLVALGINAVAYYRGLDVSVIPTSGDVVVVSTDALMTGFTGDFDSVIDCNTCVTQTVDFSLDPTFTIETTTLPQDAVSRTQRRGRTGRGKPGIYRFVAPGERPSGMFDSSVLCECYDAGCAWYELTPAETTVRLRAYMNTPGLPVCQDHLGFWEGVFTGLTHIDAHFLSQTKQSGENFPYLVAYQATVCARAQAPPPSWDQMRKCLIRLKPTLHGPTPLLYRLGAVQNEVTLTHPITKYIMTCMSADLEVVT
Description: [Landro, 1997 #Biochem 36 9340-9348]. […] The solutions were stored at −20° C. between measurements.
[Liu, 1999 Analytical Biochemistry 267 331-335].

Row | Cmax, fold change of the boosted group as compared to the non-boosted group [1] [fold] | Compound | EC50 ([2]; Hepatitis C virus, Huh-7, 72 h) [µM] | Ki (HCV NS3/4A protease) [nM] | EC50 [2] [µM]
1 | 2.2 | COc1ccc2c(O[C@@H]3C[C@H]4C(=O)N[C@]5(C(=O)NS(=O)(=O)C6CC6)C[C@H]5/C=C\CCCCN(C)C(=O)[C@@H]4C3)cc(-c3nc(C(C)C)cs3)nc2c1C [Compound 47, N-[17-[2-(4-isopropylthiazole-2-yl)-7-methoxy-8-methylquinolin-4-yloxy]-13-methyl-2,14-dioxo-3,13-diazatricyclo[13.3.0.0^4,6]octadec-7-ene-4-carbonyl](cyclopropyl)sulfonamide] |  |  | 
2 |  | CCc1c(OC)ccc2c(O[C@@H]3C[C@H]4C(=O)N[C@]5(C(=O)O)C[C@H]5/C=C\CCCCN(C)C(=O)[C@@H]4C3)cc(-c3nc(C(C)C)cs3)nc12 [Compound 71] | 10 |  | 
3 |  | COc1ccc2c(O[C@H]3C[C@H]4C(=O)NCCCCC/C=C\[C@@H]5C[C@@]5(C(=O)O)NC(=O)[C@@H]4C3)cc(-c3nc(C(C)C)cs3)nc2c1C [Compound 81] | 10 | 1000 | 
4 |  | N-[[18-[2-[4-(isopropyl)thiazol-2-yl]-7-methoxy-8-methylquinolin-4-yloxy]-2,15-dioxo-3,14,16-triazatricyclo[14.3.0.0^4,6]nonadec-7-en-4-yl]carbonyl]-(cyclopropyl)sulfonamide [Compound 91] |  | 0.05 | 0.00854

— US8754106B2, “Macrocyclic inhibitors of hepatitis C virus” (Tibotec Pharmaceuticals Ltd., priority 2005, dated 2014)
